“And” between values parts separate entries of the source, which are not always exact repeats. Equal values may be shown once.
Legend:
Format in all cases: in vivo, Domestic swine
[1] = test system: elastic lamina of the vein; experiment: Elastin (Verhoeff's elastic) staining of AV fistula veins after PDT; details: 48 h and 1 month samples
Method: (§1) Measurements and observations were made by morphometric analysis of cross-sections of fistulae stained with Verhoeff's elastic to assess the integrity of the vessel wall and also clearly demarcate the internal elastic lamina (IEL) for the measurement of IH. Areas within the lumen and those circumscribed by the internal elastic lamina (IEL) and the external elastic lamina (EEL) were measured directly using the Optimas (Optimas Corporation, Bothell, Wash., USA) program. The areas of the intima and the media were calculated by subtraction: intimal area equals the […], and medial area equals EEL area minus IEL area.

[2] = test system: endothelial lining of the vein lumen; experiment: von Willebrand factor immunostaining of AV fistula veins 48 hours after PDT; details: low-dose PDT
Text: In Example 4, the cell content of the vein wall was also examined using immunohistochemical techniques to detect SMCs (mouse anti-human ax-smooth muscle actin, clone 1A4 (Dako, Mississauga, Canada)), macrophages (mouse monoclonal anti-human monocyte/macrophage, clone MAC 387 (Serotec Inc.), T cells (Rabbit anti-human CD3 with Neo marker), and endothelial cells (rabbit polyclonal anti-human von Willebrand Factor (Dako, Mississauga, Canada)). SMCs were counted using the Optimas image analysis program and macrophages were counted manually using Image Pro Plus 3 (Media Cybernetics, Silver Spring, Md., USA).
(§2) For the purposes of determining the early cellular effects of PDT on the vein, bilateral AV fistulae were created in six pigs and treated sides were given 0.15 mg BPD-MA (0.15 mg/2 mL) and 40 minutes OR light. After 48 hours these pigs were sacrificed and the fistulae were recovered and processed for histological evaluation. This is not enough time for IH to have developed, but the cellular activation which leads to IH may be detectable. […] Immunocytochemistry for the proliferating cell nuclear antigen (PCNA) was used to assess cell proliferation in the tissue (Table 3).
Immunocytochemical staining for von Willebrand factor was performed to characterize the effects of PDT on the endothelial lining of the vein lumen. […]

[3] = test system: intimal hyperplasia in the vein of AV fistulae between the carotid artery and the jugular vein; experiment: Three month efficacy study: PDT of bilateral AV fistulae, morphometric analysis; parameters: key to PDT-treated fistula thrombosed (T): T = thrombosed
Method: A porous balloon catheter was introduced into the lumen of veins to deliver either 2 mL of BPD-MA (diluted in 5% dextrose in water) or 5% dextrose in water (control), at a delivery pressure of 2 mm Hg. Two minutes later, the photosensitizer (or dextrose) was rinsed out with heparinized saline before light exposure.
The adventitia of the vein was exposed to the operating room (OR) lamp light for 40 minutes (a combination of incandescent bulbs and fluorescence tubes—approximately 1 J/cm^2).
as §1
A three month study was conducted with bilateral end-to side AV fistulae between the carotid artery and the jugular vein created in 11 pigs. One fistula was treated with 0.15 mg/2 mL BPD-MA and 1 J/cm^2 OR lamp light delivered over 40 min; the control fistula received 5% Dextrose and light. Animals were sacrificed 3 months after PDT. The fistulae were surgically excised and processed for histology and morphometric analysis as described previously. Only 27% of the PDT treated and 45% of the control fistulae were patent by 3 months. Occlusion appeared to be due to both early thrombosis, possibly related to the surgical procedure or late thrombosis due to extensive IH and lumen narrowing.
There were three animals for which patent PDT-treated and control fistulae could be recovered. The percent of the lumen compromised by IH (% LCIH=[…]) was calculated for the first two complete blocks from the tip of the anastamosis for these samples.

[4] = test system: PCNA positive (proliferating) cells in the vein; experiment: PCNA immunocytochemistry of AV fistula veins 48 hours after PDT
Method: In Example 4, immunohistochemistry was use to study the early phase of cell proliferation. Immunocytochemistry for the proliferating cell nuclear antigen (PCNA, mouse antibody clone PC10, Sigma) was used to assess cell proliferation in the vein. PCNA positive cells were counted using the Optimas image analysis program.
as §2

[5] = 0.15 mg VERTEPORFIN/2 mL, 1 J/cm^2 OR lamp light over 40 min, three months, individual pigs
[6] = 0.15 mg VERTEPORFIN, three months, group mean
[7] = 0.15 mg VERTEPORFIN, three months, group mean (n=3)
[8] = 0.15 mg VERTEPORFIN, three months, individual pigs
[9] = 0.15 mg VERTEPORFIN, three months, individual pigs (FIG. 9: percent medial hyperplasia)
[10] = 0.15 mg/2 mL BPD-MA, three months
[11] = 0.15 mg BPD-MA (0.15 mg/2 mL), 40 minutes OR light, six pigs

With “benzoporphyrin derivative monoacid ring A [BPD-MA]” the “Damage to the elastic lamina due to PDT” value [1] was “no sign of damage to the elastic lamina”, the “Damage to endothelial cell lining of treated veins” value [2] was “did not appear to damage the endothelial cell lining” and the “Percent Lumen Compromised by Intimal Hyperplasia, PDT, Block #2” value [3, 5] was 2% and 32.3% and 41.7% and 13.7% and 46.4%. For the same substance, the “Percent Lumen Compromised by Intimal Hyperplasia, PDT, PDT (Block#1)” value [3, 5] was 3.1% and 30.2% and 17.3%, the “Medial Hyperplasia, PDT, Block#1, Mean” value [3, 6] was 21.3 and the “Medial Hyperplasia, PDT, Block#2, Mean” value [3, 6] was 14.9. The “Percent Lumen Compromised by Intimal Hyperplasia, PDT, Block #1, Mean” value [3, 6] was 16.9%, the “Percent Lumen Compromised by Intimal Hyperplasia, PDT, Block #2, Mean” value [3, 6] was 26.9% and the “Percent Lumen Compromised by Intimal Hyperplasia, Control-PDT, Block #1, Mean” value [3, 7] was 16.7%. For the same substance, the “Percent Lumen Compromised by Intimal Hyperplasia, Control-PDT, Block #2, Mean” value [3, 7] was 8.5%, the “PDT-treated fistula thrombosed (T)” value [3, 8] was “T” and the “Percent Lumen Compromised by Intimal Hyperplasia, Control-PDT, Block #1” value [3, 8] was −0.4% and 18.8% and 31.8%. For the same substance, the “Percent Lumen Compromised by Intimal Hyperplasia, Control-PDT, Block #2” value [3, 8] was 17.6% and 14.5% and −6.6%, the “Medial Hyperplasia, PDT, Block#1” value [3, 9] was 8.4 and 38.1 and 17.3 and the “Medial Hyperplasia, PDT, Block#2” value [3, 9] was 8.1 and 27.5 and 9.2. The “PDT treated fistulae patent by 3 months” value ([3]; 0.15 mg/2 mL BPD-MA, 1 J/cm^2 OR lamp light over 40 min, 11 pigs, control 45%) was 27%, the “Relative reduction of intimal hyperplasia, block 1” value [3, 10] was 46% and the “Relative reduction of intimal hyperplasia, block 2” value [3, 10] was 27%. The “PDT effect on the media of the veins” value ([3]; after 3 months) was “little PDT effect”, the “IH in block of tissue immediately adjacent to the anastamosis” value ([3]; three animals with both fistulae patent, three months) was “marked decrease in IH” and the “MEAN PERCENT OF PCNA POSITIVE CELLS PER TISSUE AREA, PDT, BLOCK 1” value [4, 11] was 0.33%. For the same substance, the “MEAN PERCENT OF PCNA POSITIVE CELLS PER TISSUE AREA, PDT, BLOCK 2” value [4, 11] was 0.74%, the “MEAN PERCENT OF PCNA POSITIVE CELLS PER TISSUE AREA, PDT, BLOCK 3” value [4, 11] was 0.65% and the “Reduction of number of proliferating cells at the anastomosis of the vein” value ([4]; low-dose PDT (0.15 mg BPD-MA)) was 2 fold.

Source: patent publication US6609014B1, “Use of PDT to inhibit intimal hyperplasia” (QLT Inc., priority 1999, dated 2003)
